Patent publication US10064865B2, “Composition comprising phosphodiesterase type 5 inhibitor for inhibiting apoptosis of nerve cells” (ARIBIO INC., priority 2012, dated 2018)
Marks after values point to notes of the source that are not given here.

Tests used:
Assay type in all cases: in vivo, Sprague-Dawley (SD) rats
[1] = Example 1 body weight measurements; settings: for Weight gains [B − A]: during 29 days after neuron apoptosis
[2] = test system: caspase-3; experiment: Example 2 immunohistochemistry: caspase-3-immunoreactive cells; settings: for Numbers of neurons: Caspase-3+: 1 mg/kg s.c. once a day for 14 days, 29 days after neuron apoptosis
Experimental: The induction of neuron apoptosis was carried out by damaging the right hemisphere of the brain of animals. Specifically, animals were anesthetized with 2 or 3% isoflurane in the mixture of 70% N2O and 28.5% O2, and were maintained with 1 to 1.5% isoflurane in the mixture of 70% N2O and 28.5% O2. After that the temporalis muscle was bisected and reflected through an incision made midway between the eye and the eardrum canal. The proximal MCA was exposed through a subtemporal craniectomy by microdental drills without removing the zygomatic arch and without transecting the facial nerve. […] Mortality was less than 5%. For sham control, all procedures were performed in the same way, with the exception of the occlusion of the MCA.
After deparaffinized of prepared […] histological paraffin sections, citrate buffer antigen (epitope) retrieval pretreatment were conducted as previously (Shi S R et al., J Histochem Cytochem. 41:1599-604(1993)). Briefly, pre-heat water bath with staining dish containing 10 mM citrate buffers (pH 6.0) until temperature reaches 95-100° C. Immerse slides in the staining dish and place the lid loosely on the staining dish. Incubate for 20 minutes and turn off the water bath. Place the staining dish at room temperature and allow the slides to cool for 20 minutes. After epitope retrievals, sections were immunostained using avidin-biotin complex (ABC) methods for caspase-3 and PARP. Endogenous peroxidase activity was blocked by incubated in methanol and 0.3% H2O2 for 30 minutes, and non-specific binding of immunoglobulin was blocked with normal horse serum blocking solution (Vector Lab., Burlingame, Calif., USA. Dilution 1:100) for 1 hr in humidity chamber. Primary antiserum were treated for overnight at 4° C. in humidity chamber, and then incubated with biotinylated universal secondary antibody (Vector Lab., Dilution 1:50) and ABC reagents (Vectastain Elite ABC Kit, Vector Lab., Dilution 1:50) for 1 hr at room temperature in humidity chamber. Finally, reacted with peroxidae substrate kit (Vector Lab.) for 3 min at room temperature. All sections were rinse in 0.01M PBS for 3 times, between steps. The neurons occupied by over 10% of immunoreactivities, the density, of each antiserum for caspase-3 and PARP were regarded as positive, and the mean numbers of caspase-3 and PARPimmunoreactive cells dispersed in the mm^2 of ipsilateral peri-infarct/defect cerebral cortex were counted using an automated image analysis process as establish methods (Lee et al., 2010; Song et al., 2012), respectively. The histopathologist was blinded to the group distribution when performing the analysis.
(§1) All data were expressed as mean±standard deviation (S.D.) of ten rats. Multiple comparison tests for different dose groups were conducted. Variance homogeneity was examined using the Levene test (Levene A, Clin Otalary, 1981; 6:145-51). […] Statistical analyses were conducted using SPSS for Windows (Release 14K, SPSS Inc., USA; Ludbrook, Clin Exp Pharmacol Physiol, 1997; 24:294-6). In addition, the percent changes as compared with neuron apoptosis control and mirodenafil treated rats were calculated to help the understanding of the efficacy of test substances as follow Equation 6 and 7. Percentage Changes as Compared with Sham Control (%)=[((Data of neuron apoptosis control−Data of sham control rat)/Data of sham control rats)×100] [EQUATION 6] Percentage Changes as Compared with neuron apoptosis Control (%)=[((Data of test material treated rats−Data of neuron apoptosis control rats)/Data of neuron apoptosis control rats)×100] [EQUATION 7]

[3] = Example 2 body weight measurements; settings: for Body weights at 29 days after surgery [B] / Weight gains [B − A]: 1 mg/kg s.c. once a day for 14 days; for Body weights at Before surgery / Body weights at surgery [A]: before treatment
Experimental: Changes of body weight were measured at 1 day before neuron apoptosis, the day of neuron apoptosis, 1, 3, 7, 14, 21, 28 and 29 days after neuron apoptosis. […] Body weight gains (g) during 29 days after neuron apoptosis=(Body weight at the 29 days after neuron apoptosis−body weight at the day of neuron apoptosis) [EQUATION 5]
as §1

[4] = Example 1 body weight measurements; settings: for Body weights at 1 day before surgery / Body weights at surgery [A]: before treatment, in g
Experimental: Changes of body weight were measured at 1 day before neuron apoptosis, the day of neuron apoptosis, 1, 7 14, 21, 28 and 29 days after neuron apoptosis using an automatic electronic balance. To reduce the individual differences, the body weight gains after neuron apoptosis and continuous oral treatment of materials were calculated as follows. Body weight gains (g) during 29 days after neuron apoptosis=(Body weight at the 29 days after neuron apoptosis−body weight at the day of neuron apoptosis) [EQUATION 2]
All data were expressed as mean±standard deviation (S.D.) of ten rats. Multiple comparison tests for different dose groups were conducted. Variance homogeneity was examined using the Levene test (Levene A, Clin Otalary, 1981; 6:145-51). […] Statistical analyses were conducted using SPSS (Release 14K, SPSS Inc., USA; Ludbrook, Clin Exp Pharmacol Physiol, 1997; 24:294-6). In addition, the percent changes between neuron apoptosis control and mirodenafil treated rats were calculated to help the understanding of the efficacy of test material as follow equation 3. Percentage changes as compared with neuron apoptosis control (%)=[((Data of mirodenafil treated groups−Data of neuron apoptosis control)/Data of neuron apoptosis control)×100] [EQUATION 3]

[5] = 1 mg/kg from 24 hrs after surgery
[6] = 1 mg/kg from 72 hrs after surgery
[7] = 1 mg/kg from 168 hrs after surgery

## CCCOc1ccc(S(=O)(=O)N2CCN(CCO)CC2)cc1-c1nc2c(CCC)cn(CC)c2c(=O)[nH]1 [Mirodenafil, mirodenafil]
[1]; 0.5 mg/kg
  body weight gains during 29 days, change as compared with neuron apoptosis control: 45.53%
[1]; 0.5 mg/kg s.c. once a day
  Body weights at 29 days after surgery [B]: 502.60 ± 23.09^a
  Weight gains [B − A]: −7.60 ± 9.19^a g
[1]; 1 mg/kg s.c. once a day
  Body weights at 29 days after surgery [B]: 526.40 ± 23.45^bd
  Weight gains [B − A]: 16.10 ± 7.80^ac g
[1]; 2 mg/kg s.c. once a day
  Body weights at 29 days after surgery [B]: 520.90 ± 30.21^b
  Weight gains [B − A]: 7.50 ± 11.20^ac g
[2]; [5]
  numbers of caspase-3-immunoreactive neurons at 29 days, change as compared with neuron apoptosis control: −57.29%
[2]; [6]
  numbers of caspase-3-immunoreactive neurons at 29 days, change as compared with neuron apoptosis control: −40.63%
[2]; [7]
  numbers of caspase-3-immunoreactive neurons at 29 days, change as compared with neuron apoptosis control: −15.57%
[2]; start 24 hrs after operation
  Numbers of neurons: Caspase-3+: 30.01 ± 4.90^ab cells/mm^2 of cerebral cortex
[2]; start 72 hrs after operation
  Numbers of neurons: Caspase-3+: 41.71 ± 6.34^ab cells/mm^2 of cerebral cortex
[2]; start 168 hrs after operation
  Numbers of neurons: Caspase-3+: 59.33 ± 5.13^a cells/mm^2 of cerebral cortex
[3]; [5]
  body weight gains during 29 days, change as compared with neuron apoptosis control: 43.24%
[3]; [6]
  body weight gains during 29 days, change as compared with neuron apoptosis control: 33.78%
[3]; [7]
  body weight gains during 29 days, change as compared with neuron apoptosis control: 11.04%
[3]; start 24 hrs after operation
  Body weights at 29 days after surgery [B]: 357.13 ± 15.38^ab g
  Weight gains [B − A]: 79.50 ± 14.09^ab g
[3]; start 72 hrs after operation
  Body weights at 29 days after surgery [B]: 349.38 ± 10.28^ac g
  Weight gains [B − A]: 74.25 ± 14.95^ab g
[3]; start 168 hrs after operation
  Body weights at 29 days after surgery [B]: 338.63 ± 15.26^a g
  Weight gains [B − A]: 61.63 ± 6.78^a g
[3]; 1 mg/kg start 24 hrs group
  Body weights at Before surgery: 307.75 ± 15.84 g
  Body weights at surgery [A]: 277.63 ± 15.07 g
[3]; 1 mg/kg start 72 hrs group
  Body weights at Before surgery: 307.25 ± 11.36 g
  Body weights at surgery [A]: 275.13 ± 12.21 g
[3]; 1 mg/kg start 168 hrs group
  Body weights at Before surgery: 307.88 ± 10.53 g
  Body weights at surgery [A]: 277.00 ± 10.41 g
[4]; 0.5 mg/kg group
  Body weights at 1 day before surgery: 540.70 ± 23.66
  Body weights at surgery [A]: 510.20 ± 26.08
[4]; 1 mg/kg
  body weight gains during 29 days, change as compared with neuron apoptosis control: 218.52%
[4]; 1 mg/kg group
  Body weights at 1 day before surgery: 539.70 ± 27.54
  Body weights at surgery [A]: 510.30 ± 28.32
[4]; 2 mg/kg
  body weight gains during 29 days, change as compared with neuron apoptosis control: 155.74%
[4]; 2 mg/kg group
  Body weights at 1 day before surgery: 543.30 ± 26.39
  Body weights at surgery [A]: 513.40 ± 27.21
